Test results: patent US20060148030A1, “Nuclear receptor err y 3” (FUJISAWA PHARMACEUTICAL CO., LTD, priority 2002, published 2006)
Where two headings read alike, the source gives them in different places.

T1: PPARα (Homo sapiens, UniProt Q07869)
T1 construct: expressed in transfected cells; host or cells: CV-1 (African green monkey kidney)
T1 sequence (Q07869 1-468): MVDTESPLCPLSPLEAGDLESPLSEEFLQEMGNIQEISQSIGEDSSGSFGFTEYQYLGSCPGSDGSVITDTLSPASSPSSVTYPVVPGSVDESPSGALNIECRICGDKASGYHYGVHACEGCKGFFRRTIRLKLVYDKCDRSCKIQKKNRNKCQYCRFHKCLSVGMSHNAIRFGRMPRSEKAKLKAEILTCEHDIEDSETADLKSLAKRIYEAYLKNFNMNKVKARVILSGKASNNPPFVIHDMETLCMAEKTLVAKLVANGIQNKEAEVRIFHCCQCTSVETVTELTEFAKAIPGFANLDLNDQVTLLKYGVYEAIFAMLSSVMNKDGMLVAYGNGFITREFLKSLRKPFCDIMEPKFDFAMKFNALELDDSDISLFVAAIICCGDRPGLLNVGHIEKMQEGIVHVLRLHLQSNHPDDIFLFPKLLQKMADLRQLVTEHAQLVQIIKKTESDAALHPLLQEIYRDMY
T1 sequence (P19793 1-462 partner): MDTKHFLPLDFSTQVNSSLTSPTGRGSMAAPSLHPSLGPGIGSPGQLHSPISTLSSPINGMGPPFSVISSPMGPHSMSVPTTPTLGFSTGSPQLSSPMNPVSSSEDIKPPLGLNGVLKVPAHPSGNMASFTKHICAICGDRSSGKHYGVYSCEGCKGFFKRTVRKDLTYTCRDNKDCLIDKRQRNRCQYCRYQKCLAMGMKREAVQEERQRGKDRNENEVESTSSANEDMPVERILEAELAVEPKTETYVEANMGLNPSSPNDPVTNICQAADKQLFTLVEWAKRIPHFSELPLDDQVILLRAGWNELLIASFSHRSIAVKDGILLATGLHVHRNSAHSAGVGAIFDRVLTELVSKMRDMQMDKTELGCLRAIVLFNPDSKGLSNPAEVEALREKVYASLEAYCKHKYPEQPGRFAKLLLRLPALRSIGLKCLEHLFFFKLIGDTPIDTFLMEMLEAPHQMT

B1: ERRγ3: novel ERRγ isoform, nuclear receptor protein of 396 amino acids (SEQ ID NO: 2) lacking part of the DNA binding domain (protein, listed as Homo sapiens)
chain: MSNKDRHIDSSCSSFIKTEPSSPASLTDSVNHHSPGGSSDASGSYSSTMNGHQNGLDSPPLYPSAPILGGSGPVRKLYDDCSSTIVEDPQTKCEYMLNSMPKRLCLVCGDIASGYHYGVASCEACKAFFKRTIQGVRLDRVRGGRQKYKRRIDAENSPYLNPQLAQPAKKPYNKIVSHLLVAEPEKIYAMPDPTVPDSDIKALTTLCDLADRELVVIIGWAKHIPGFSTLSLADQMSLLQSAWMEILILGVVYRSLSFEDELVYADDYIMDEDQSKLAGLLDLNNAILQLVKKYKSMKLEKEEFVTLKAIALANSDSMHIEDVEAVQKLQDVLHEALQDYEAGQHMEDPRRAGKMLMTLPLLRQTSTKAVQHFYNIKLEGKVPMHKLFLEMLEAKV

Experiments:
ERRγ2 = settings: stated as known property, cited from earlier work
PPARα = target: T1, PPARα; assay: Reporter gene assay, ERRγ3 coexisted with PPARα, pGVP2-PPRE1 in CV-1 cells; format: cell-based; settings: 10^−5 M bezafibrate, FIG. 24
Procedure: Transfection was performed as follows: CV-1 cells were resuspended in DMEM supplemented with 10% fetal bovine serum, 2000 U/l of penicillin G, and 100 mg/l of streptomycin to a concentration of 2×10^5 cells/2.5 ml. This was then seeded to a 6-well plate at 2.5 ml per well, and incubated for 18-24 hours in a CO2 incubator at 37° C. and 5% CO2. 1 μg of each of the expression plasmids for the transcription factors, the luciferase reporter plasmid, and another luciferase reporter plasmid used for normalization of the measured values (pRL-TK), were dissolved in Opti-MEM (Gibco BRL), to a total of 150 μl. […] Luciferase activity was measured using the Dual-Luciferase™ Reporter Assay System (Promega). […] The protocol for measurement was as follows: 50 μl of Luciferase Assay Reagent II was added to each well, stirred for 0.3 seconds, and measured for one second. 50 μl of Stop&Glo™ Reagent was then added, stirred for 0.3 seconds, and measured for one second. The measured values for firefly luciferase activity were corrected by dividing by the value for the Renilla luciferase activity, the internal control. Average values and standard errors were calculated from triplicate samples.
The effect of ligands on the function of ERRγ3 in enhancing the transcriptional activation function of peroxisome proliferator activated receptor (PPAR) α, β, or γ was evaluated using the reporter gene assay (FIG. 24). […]

Sequence of ERRγ2 (P62508 whole entry): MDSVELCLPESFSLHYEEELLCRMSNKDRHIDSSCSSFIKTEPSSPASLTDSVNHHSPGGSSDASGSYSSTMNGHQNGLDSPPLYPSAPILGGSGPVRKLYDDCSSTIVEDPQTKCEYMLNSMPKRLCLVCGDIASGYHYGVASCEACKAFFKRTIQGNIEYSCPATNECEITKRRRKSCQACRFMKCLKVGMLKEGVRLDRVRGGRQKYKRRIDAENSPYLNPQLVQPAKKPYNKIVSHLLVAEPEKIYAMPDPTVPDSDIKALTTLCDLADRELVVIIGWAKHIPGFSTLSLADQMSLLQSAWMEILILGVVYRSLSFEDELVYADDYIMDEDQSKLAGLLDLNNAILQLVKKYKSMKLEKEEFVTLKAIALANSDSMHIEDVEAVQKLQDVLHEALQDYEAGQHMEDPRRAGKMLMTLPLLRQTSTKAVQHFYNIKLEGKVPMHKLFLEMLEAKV

Molecule | inhibition of the transcriptional activation function of ERRγ2 (ERRγ2) | inhibition of the transcriptional activation function of ERRγ2 (ERRγ2; listed as 4-OHT) | modifying effect on the transcriptional stimulation activity of PPARα (PPARα)
4-hydroxytamoxifen [reference compound] | known to inhibit ERRγ2 activity | inhibiting their transcriptional activation function | –
B1 | – | – | did not show any significant modifying effect
